In patent US5437982A, “Methods of identifying specific inactivation gate inhibitors of the sodium channel” (University of Washington, priority 1993, dated 1995):
Entries after “also recorded” stand apart in the source; their conditions may differ. Where a SMILES comes first, the peptide text is derived from it.

Tests used:
Format in all cases: cell-based
[1] = target: scorpion-toxin modified wild-type sodium channels (Rattus norvegicus, UniProt P04775); assay: Inactivation in scorpion-toxin modified wild-type sodium channels in CNaIIA-1 cells; details: 100 nM LqTx in bath; test voltage to 0 mV; FIG. 6
From the text: Externally applied alpha-scorpion toxins slow sodium channel inactivation without affecting activation (reviewed in 26). Sodium currents in stably transfected CNaIIA-1 cells respond to a depolarizing test voltage to 0 mV with rapid activation and inactivation of the sodium channel. […] KIQMK, on the other hand, had no effect (FIG. 6).

[2] = target: wild-type Type IIA sodium channels (Rattus norvegicus, UniProt P04775); assay: Voltage- and frequency-dependent block of sodium channels, sodium currents recorded in CNaIIA-1 cells; details: for block of rapidly cycling type IIA sodium channels over the entire voltage range: 10 Hz voltage pulses, -50 to +100 mV
Experimental: (§1) Experiments were performed on wild-type Type IIA sodium channels stably transfected into Chinese hamster ovary (CHO) cells (CNalIA-1; as described in citation 23, which is incorporated herein by reference) and mutant (F1489Q) sodium channels transiently transfected into human kidney carcinoma cells (as described in citations 24 and 25, which are incorporated herein by reference).
The effects of the KIFMK gate peptide on sodium channels was tested by backfilling an electrode with a recording solution containing 1 mM peptide after loading the tip of the electrode with a buffer of peptide-free solution (i.e., to enhance seal formation when the electrode was inserted into a cell). After forming a high-resistance seal and breaking through the cell membrane, the peptide rapidly diffused into the cell and caused the appearance of tail currents (see below) within 10 minutes. When stabilized, sodium currents were recorded in the cells before and after a series of 10 Hz voltage pulses that varied over the range -50 to +100 mV. Parallel control experiments were conducted in which electrodes were not backfilled with peptides. The magnitude of the sodium currents in the experimental and control preparations were compared.
As a control, a KIQMK peptide was prepared to mimic the sequence present in mutant F 1489Q sodium channels.

[3] = system: mutant F1489Q sodium channels; assay: Restoration of inactivation in mutant sodium channels transiently expressed in TSQ-201 cells; details: for inactivation of mutant (F1489Q) sodium channels: peptide perfused at 1 mM into TSQ-201 cells, FIG. 4
Experimental: as §1
Mutant F1489Q sodium channels were transiently expressed in TSQ-201 cells (24). The mutant channels in the cells activated normally but inactivated very slowly. […] The time course of inactivation for the mutant channels was dramatically slowed over the entire voltage range. Having established the properties of the test cells and mutant channels, the peptides KIFMK and KIQMK were next tested. KIFMK or KIQMK were perfused (at a concentration of 1 mM) into the TSQ-201 cells expressing the mutant (F1489Q) sodium channels.

[4] = target: Wild-type IIA sodium channels (Rattus norvegicus, UniProt P04775); assay: Competition with the normal inactivation process: tail currents by whole-cell voltage clamp; details: cell perfused with peptide; for macroscopic sodium current elicited by depolarizing test pulse to 0 mV: versus controls; for tail currents elicited by repolarization pulse: from 0 to -80 mV, FIG. 5
From the text: Considering binding of KIFMK inactivation gate peptide to putative inactivation gate receptor site(s) in the intracellular mouth of the sodium channel, peptide binding might prevent channel closure by the natural inactivation gate due to steric hindrance. In this model, closure of the inactivation gate would be prevented by the drug and after depolarization-induced opening, repolarization should cause the peptide to dissociate from the channel, leaving the channel open for a "brief period" of time before closure and inactivation can block the channel. The existence of the "brief period" of channel opening was captured and recorded as a rising component of tail current in the following experiments.
Wild-type IIA sodium channels were recorded using a whole-cell voltage clamp method. Under the recording conditions used, the sodium channels have tail currents upon rapid repolarization that declined exponentially without a rising phase because the channel rapidly closes upon repolarization (FIG. 5A). The magnitude of the tail currents decreases as the duration of the test pulse is increased. Repetitive pulsing created a family of tail current recordings that decreased exponentially (from a starting level near that of the sodium current), without any rising component in the recorded curves (FIG. 5A). […] The amplitude of the rising component of the latter tail currents decreased with increasing pulse duration as the macroscopic sodium current decreased.

[5] = target: sodium channel in CNaIIA cells (Rattus norvegicus, UniProt P04775); assay: Blocking of the sodium channel in CNaIIA cells by IFM-amide during repetitive stimulation; details: for dependence of inhibition of sodium channels / sodium channel blocking: repetitive stimulation; for sodium channel blocking: FIGS. 7 and 8
From the text: It was reasoned that a tripeptide IFM-amide could be an effective inactivation gate peptide since it contains both the critical IFM residues and the charge of the unblocked α-amino group in the isoleucine residue. […] During repetitive stimulation, increased inhibition is observed with each succeeding pulse (pulse #) until a steady state is reached (FIG. 7). The degree of inhibition at steady state is dependent on the frequency of the stimulation pulses (% Ipulse #1; FIG. 7) and on the voltage of the stimulating pulses (FIG. 8). […] This implies that IFM amide has greater intrinsic affinity for the receptor site that blocks the sodium channel.

[6] = system: Na+ channels; assay: Structural specificity: ability of peptides to block sodium channels and restore fast inactivation; details: qualitative summary; methods similar to Examples 1-4
From the text: The results of these experiments are summarized qualitatively below.

Chain of sodium channel in CNaIIA cells (P04775 whole entry): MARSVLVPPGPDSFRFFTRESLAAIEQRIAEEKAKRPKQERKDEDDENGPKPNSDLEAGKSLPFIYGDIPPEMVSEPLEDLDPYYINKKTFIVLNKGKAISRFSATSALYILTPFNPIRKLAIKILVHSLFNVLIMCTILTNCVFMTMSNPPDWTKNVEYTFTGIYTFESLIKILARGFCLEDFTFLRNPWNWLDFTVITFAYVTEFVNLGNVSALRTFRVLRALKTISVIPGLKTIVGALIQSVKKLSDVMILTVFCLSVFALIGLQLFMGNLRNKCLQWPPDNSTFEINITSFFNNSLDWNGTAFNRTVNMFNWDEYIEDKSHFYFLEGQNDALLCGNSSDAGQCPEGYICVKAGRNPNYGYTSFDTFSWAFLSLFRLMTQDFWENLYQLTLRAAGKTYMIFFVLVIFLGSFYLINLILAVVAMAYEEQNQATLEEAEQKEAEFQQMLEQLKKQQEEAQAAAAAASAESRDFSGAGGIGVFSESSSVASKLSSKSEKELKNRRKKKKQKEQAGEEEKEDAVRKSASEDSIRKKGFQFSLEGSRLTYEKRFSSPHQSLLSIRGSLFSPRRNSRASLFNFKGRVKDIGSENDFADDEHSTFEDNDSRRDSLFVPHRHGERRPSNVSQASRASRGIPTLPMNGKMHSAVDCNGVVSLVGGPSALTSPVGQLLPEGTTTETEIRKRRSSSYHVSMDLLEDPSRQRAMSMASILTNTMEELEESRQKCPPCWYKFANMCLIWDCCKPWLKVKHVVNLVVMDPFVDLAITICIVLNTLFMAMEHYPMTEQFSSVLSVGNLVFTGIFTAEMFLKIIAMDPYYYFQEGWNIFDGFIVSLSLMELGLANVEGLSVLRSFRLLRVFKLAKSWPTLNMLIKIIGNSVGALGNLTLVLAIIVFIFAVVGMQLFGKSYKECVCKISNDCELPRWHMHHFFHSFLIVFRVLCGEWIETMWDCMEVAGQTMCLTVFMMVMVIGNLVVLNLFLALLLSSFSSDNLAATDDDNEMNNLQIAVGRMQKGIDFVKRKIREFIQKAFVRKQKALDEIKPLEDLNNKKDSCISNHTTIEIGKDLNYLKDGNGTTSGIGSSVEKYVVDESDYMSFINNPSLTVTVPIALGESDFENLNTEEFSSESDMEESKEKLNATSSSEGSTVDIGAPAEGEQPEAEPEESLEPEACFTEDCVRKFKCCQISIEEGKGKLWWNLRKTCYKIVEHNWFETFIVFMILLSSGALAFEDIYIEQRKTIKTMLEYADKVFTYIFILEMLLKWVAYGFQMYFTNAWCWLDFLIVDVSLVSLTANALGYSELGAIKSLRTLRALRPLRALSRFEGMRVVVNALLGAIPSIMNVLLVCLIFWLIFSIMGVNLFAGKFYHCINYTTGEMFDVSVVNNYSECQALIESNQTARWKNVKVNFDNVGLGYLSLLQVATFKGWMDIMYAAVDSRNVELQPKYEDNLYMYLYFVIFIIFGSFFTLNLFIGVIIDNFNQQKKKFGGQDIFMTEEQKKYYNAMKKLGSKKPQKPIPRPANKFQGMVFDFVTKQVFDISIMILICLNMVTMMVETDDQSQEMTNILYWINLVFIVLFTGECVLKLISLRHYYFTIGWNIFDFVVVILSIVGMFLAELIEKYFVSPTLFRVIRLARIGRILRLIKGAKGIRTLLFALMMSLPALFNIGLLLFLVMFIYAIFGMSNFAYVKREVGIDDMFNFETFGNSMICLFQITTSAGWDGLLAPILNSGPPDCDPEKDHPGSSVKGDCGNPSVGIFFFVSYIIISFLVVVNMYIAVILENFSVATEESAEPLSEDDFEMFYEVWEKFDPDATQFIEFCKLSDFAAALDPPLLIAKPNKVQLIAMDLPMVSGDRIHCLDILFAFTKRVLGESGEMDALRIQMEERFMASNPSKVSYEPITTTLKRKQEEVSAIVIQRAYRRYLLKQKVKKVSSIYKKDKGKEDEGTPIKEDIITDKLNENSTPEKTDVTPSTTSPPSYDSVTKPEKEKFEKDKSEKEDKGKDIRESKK
Chain of Wild-type IIA sodium channels (P04775 whole entry, the tested form may be a part): as the sequence (P04775 whole entry) above
Chain of wild-type Type IIA sodium channels (P04775 whole entry): as above
Chain of scorpion-toxin modified wild-type sodium channels (P04775 whole entry): as above

Ac-KIQMK-NH2 [KIQMK, acetyl-KIQMK-amide, reference compound]
initial rate of sodium channel inactivation in presence of α-scorpion toxin [1]: no effect
block of rapidly cycling type IIA sodium channels over the entire voltage range ([2]; FIG. 3): inactive; also recorded: did not block
inactivation of mutant (F1489Q) sodium channels [3]: without effect; also recorded: did not
macroscopic sodium current elicited by depolarizing test pulse to 0 mV [4]: no significant effect
tail currents elicited by repolarization pulse [4]: no significant effect; also recorded: no significant gating currents

CC[C@H](C)[C@H](NC(=O)[C@H](CCCCN)NC(C)=O)C(=O)N[C@@H](Cc1ccccc1)C(=O)N[C@@H](CCSC)C(=O)N[C@@H](CCCCN)C(N)=O [KIFMK, acetyl-KIFMK-amide]
initial rate of sodium channel inactivation in presence of α-scorpion toxin [1]: significantly accelerated; also recorded: partially restore inactivation activity
time to appearance of tail currents after peptide diffusion into the cell ([2]; 1 mM peptide in backfilled electrode): ≤ 10 min
reduction (inhibition) of sodium currents in response to frequent depolarizing pulses ([2]; 1 mM peptide in electrode, 10 Hz pulses, after 15 min perfusion/cycling): substantial level of inhibition; also recorded: substantially reduced
channel block by 10 Hz pulses given at 100 mV ([2]; 1 mM peptide, FIG. 3): completely blocked
reduction in sodium current when cell membranes not depolarized frequently ([2]; 1 mM peptide, closed channels): Little reduction
blockage of currents generated in response to 10 Hz pulses at positive voltages ([2]; 1 mM peptide, greater than 0 mV): substantial
block of rapidly cycling type IIA sodium channels over the entire voltage range ([2]; FIG. 3): inhibited
inhibition of sodium currents within 4 minutes of cycling ([2]; FIG. 2A, relative to control recording without peptide): insignificant level of inhibition
character of the inhibitory effect on the sodium channel ([2]; combined results of Example 1): strong and voltage- and frequency-dependent
time to steady-state level of inhibition ([3]; 1 mM peptide): less than 2 ms
course and extent of induced inactivation ([3]; 1 mM, compared with wild-type channel function): rapid but incomplete
inactivation of mutant (F1489Q) sodium channels [3]: restore inactivation; also recorded: successfully inactivated
macroscopic sodium current elicited by depolarizing test pulse to 0 mV [4]: decayed with a time course faster than that of controls
tail currents elicited by repolarization pulse [4]: rose to a peak and then decayed much more slowly than in controls; also recorded: significant tail currents

CC[C@H](C)[C@H](N)C(=O)N[C@@H](Cc1ccccc1)C(=O)N[C@@H](CCSC)C(N)=O [IFM-amide] (H-Ile-Phe-Met-NH2)
membrane potentials at which block is effective, compared with KIFMK ([5]; compare FIGS. 3 and 8): effective sodium channel blocker at much more negative membrane potentials than KIFMK
blocking activity compared with IFM free acid or acetyl IFM free acid ([5]; experiments like those in Example 6): increased blocking activity
dependence of inhibition of sodium channels [5]: voltage-sensitive blocking
sodium channel blocking [5]: blocking of the sodium channel
sodium channel blocking ([5]; listed as IFM amide): very effective sodium channel blocker
dependence of inhibition of sodium channels ([5]; listed as IFM amide): voltage- and frequency-dependent

Ac-DIFMT-NH2 [acetyl-DIFMT-amide]
Inhibition of Na+ channels [6]: ineffective
